Measurements taken from US20260337212A1, “IP4-4,6 SUBSTITUTED DERIVATIVE COMPOUNDS FOR USE IN THE TREATMENT, INHIBITION OF PROGRESSION, AND PREVENTION OF ECTOPIC CALCIFICATION” (SANIFIT THERAPEUTICS, S.A., priority 2022, published 2026).

Legend:
[1] = Rat vitamin D3 model: walking ability, forced incremental treadmill test; assay type: in vivo, Sprague Dawley rat
Description: FIG. 14 depicts the mean maximum walking distance (±SD) in Sham rats (no VitD3 treatment) and rats treated with vehicle, Compound 27 (5, 15, and 45 mg/kg). Statistical analysis: One-way ANOVA with Fisher's LSD test for post-hoc comparisons. The result of the ANOVA was p<0.0001. (#) indicates significant differences vs. sham, (*) indicates significant differences vs vehicle, (§) indicates significant differences vs Compound 27 5 mg/kg (only applies to other Compound 27 doses), (¥) indicates significant differences vs Compound 27 15 mg/kg (only applies to Compound 27 45 mg/kg), (‡) significant differences vs Compound 27 45 mg/kg, p<0.05.
The model evaluated the effects of Compound 27 on tissue calcification, blood perfusion, and walking ability in rats for a duration of 13 days. Tissue calcification was induced in groups 2-5 from D1 to D3. […] The impact of treatment on tissue calcification, blood perfusion, and walking ability was evaluated. […]
Maximal walking time (MWT) and maximal walking distance (MWD) were assessed by forced incremental treadmill running tests using a two-lane touch screen treadmill device for rats (Cat. No. LE8709TS, Panlab, Harvard Biosciences, Inc., Holliston, MA, US) with a 15% inclination. […]
For group 2, the treadmill assessment started 15 min after dosing. […] MWD (in meters) and MWT (in minutes) were recorded for each animal.

[2] = tested on: abcc6a−/− zebrafish larvae; test: abcc6a−/− zebrafish model of Pseudoxanthoma elasticum: spinal column hypermineralization (Alizarin Red); assay type: in vivo; settings: 3 to 10 dpf
Description: FIG. 16 depicts an analysis of hypermineralization using Alizarin Red staining in 10 dpf abcc6a^−/− zebrafish larvae. The larvae were kept in E3-medium (n=20) and E3-medium supplemented with Compound 27 1 mM (n=18) from 3 to 10 dpf.
A stable CRISPR/Cas9 abcc6a^−/− zebrafish model characterized for spinal column hypermineralization was used for assaying the efficacy of Compound 27 in the treatment of Pseudoxanthoma elasticum (PXE; Van Gils M, et al., J Invest Dermatol […]; 138:2333-2342).
Abcc6a^−/− larvae were treated with Compound 27 at different concentrations (i.e., 100 μM, 300 μM, and 1 mM) for 7 days, starting at 3 days post fertilization (dpf), with daily refreshment of the medium containing the solved compounds. On 10 dpf, the larvae were euthanized and stained with Alizarin Red to visualize the spinal column hypermineralization, using a Leica M165 FC microscope (Leica Microsystems GmbH, Wetzlar, DE). Semi-quantification of calcification was done through image processing with ImageJ […] (Rasband W, Research Services Branch, NIH, Bethesda, MD, US).

## 4,6-O-bis(5-acetamidopentyl)-myo-inositol-1,2,3,5-tetrakis(phosphate) octasodium salt [Compound 27]
[1]; 5, 15, 45 mg/kg s.c. daily, FIG. 14
  Effect on maximum walking distance: dose-response effect from 5 mg/kg
[1]; 15 and 45 mg/kg s.c. daily, as early as D5 after induction
  Improvement of walking ability: improves the walking ability of rats administered with vitamin D as early as D5 after the induction of the PAD disease, in a dose-response manner
[2]; 1 mM in E3-medium, FIG. 16
  Reduction of spinal hypermineralization (in words): Significant reduction of spinal hypermineralization
[2]; 1 mM in medium
  Average reduction of spinal column hypermineralization: 60%
  Physiological calcification and bone formation: conservation of the physiological calcification and bone formation
  Significance (p) of reduced spinal hypermineralization vs untreated: < 0.001
[2]; 1 mM in medium, untreated 35.2
  Relative calcified area: 14.17
